Legend:
Format in all cases: in vivo
Spodoptera litura [1] = assay: Tobacco cutworm (Spodoptera litura) larvae using artificial diet; details: 20 ppm, 3rd-instar larvae
Method: BIOLOGICAL TEST EXAMPLE 1.2
Tobacco Cutworm (Spodoptera litura) Larvae Using Artificial Diet
2.3 g of artificial diet powder is put into a PET cup (7.5 cm diameter, 4 cm depth). The powder was leveled to make a layer in the bottom of the cup. 5 ml of a chemical solution is poured onto the powder and spread uniformly. The cup with treated diet powder is placed quiet to let the diet jell. Into each testing cup five 3rd-instar larvae were released. The testing cup is closed with the lid and placed in a temperature-controlled room at 25° C. and 50-60% R.H., 16L8D lighting conditions.
The mortality in % was determined according to the following criteria:
1 larva dead: 20% Efficacy
5 larvae dead: 100% Efficacy

Musca domestica = Musca domestica test; details: for activity (mortality in %): 100 ppm, adults, sugar/compound sponge, after 2 days
Method: BIOLOGICAL TEST EXAMPLE 9
(§1) Solvent: Dimethyl Sulfoxide
To produce a suitable preparation of active compound, 10 mg of active compound are dissolved in 0.5 ml solvent, and the concentrate is diluted with water to the desired concentration. Prior to the assay, a piece of kitchen sponge is soaked with a mixture of sugar and compound solution and placed into a container. 10 adults (Musca domestica) are placed into the container and closed with a perforated lid.
After 2 days mortality in % is determined. 100% means that all the flies have been killed; 0% means that none of the flies have been killed.

Tetranychus urticae = assay: Two-spotted spider mite Tetranychus urticae spray test on kidney bean; details: adult mites, after 7 days
Method: BIOLOGICAL TEST EXAMPLE 2
Two-Spotted Spider Mite Tetranychus urticae
50 to 100 adult mites of Tetranychus urticae were inoculated to leaves of kidney bean at two-leaf stage planted in a pot of 6 cm in diameter. After one day, test solution at the appropriate concentration was sprayed thereon in a sufficient amount using a spray gun. After the spraying, the plant pot was placed inside a greenhouse, and after 7 days, the acaricidal activity was calculated. An acaricidal activity of 100% means that all mites were killed, an acaricidal activity of 0% means that no mite was killed.

Aulacophora femoralis = assay: Cucurbit leaf beetle (Aulacophora femoralis) cucumber leaf dip test; details: second instar larvae, treated cucumber leaves, after 7 days
Method: BIOLOGICAL TEST EXAMPLE 3
Cucurbit Leaf Beetle (Aulacophora femoralis)
Leaves of cucumber were immersed in the test solution at the appropriate concentration, and the leaves were dried in air. The leaves were then put in a plastic cup containing sterilized black soil and five Aulacophora femoralis at second instar larvae were released in the cup. The cups were placed in a temperature-controlled chamber at 25° C. After 7 days, the number of dead larvae was counted, and thus the insecticidal activity was calculated. An insecticidal activity of 100% means that all larvae were killed, whereas an insecticidal activity of 0% means that no larva was killed.

Spodoptera litura [2] = assay: Tobacco cutworm (Spodoptera litura) larvae, sweet potato leaf dip test; details: third instar larvae, treated sweet potato leaves, after 7 days
Method: Unless not mentioned otherwise, the test solutions were prepared as follows:
Solvent: dimethyl formamide, 3 parts by weight
Emulsifier: polyoxyethylene alkyl phenyl ether, 1 part by weight
To prepare the test solution, 1 part by weight of an active compound is mixed with the above-mentioned amount of solvent containing the above-mentioned amount of emulsifier, and the mixture is diluted with water to the desired concentration.
BIOLOGICAL TEST EXAMPLE 1.1
Tobacco Cutworm (Spodoptera litura) Larvae
Leaves of sweet potato were immersed in the test solution at the appropriate concentration, and the leaves were dried in air. The leaves were then placed in a petri dish having a diameter of 9 cm, and ten Spodoptera litura at third instar larvae were released therein. The petri dishes were placed in a temperature-controlled chamber at 25° C. After 2 days and 4 days more sweet potato leaves were added. After 7 days, the number of dead larvae was counted to calculate the insecticidal activity. An insecticidal activity of 100% means that all larvae were killed, whereas an insecticidal activity of 0% means that no larva was killed. In the current test, the results of two petri dishes for each treatment were averaged.

Lucilia cuprina = Lucilia cuprina (48 hrs) larval test; details: read-out: activity (larval mortality in %)
Method: BIOLOGICAL TEST EXAMPLE 8
Species: Lucilia cuprina 1st Instar Larvae (Age 24 Hrs)
as §1
10 mg active compound are dissolved in 0.5 ml dimethyl sulfoxide. Serial dilutions are made to obtain the desired rates. Approximately 20 Lucilia cuprina 1st instar larvae are transferred into a test tube containing 1 cm^3 of minced horse meat and 0.5 ml aqueous dilution of test compound.
After 2 days larval mortality in % is recorded. 100% efficacy=all larvae are killed, […].

Boophilus microplus = Boophilus microplus (dip)
Method: BIOLOGICAL TEST EXAMPLE 5
Boophilus microplus (Dip)
as §1
To produce a suitable preparation of active compound, 10 mg of active compound are dissolved in 0.5 ml solvent, and the concentrate is diluted with water to the desired concentration. Eight to ten adult engorged female Boophilus microplus ticks are placed in perforated plastic beakers and immersed in aqueous compound solution for one minute. Ticks are transferred to a filter paper in a plastic tray. Egg deposition of fertile eggs is monitored after. After 7 days mortality in % is determined. 100% means that all the ticks have been killed; 0% means that none of the ticks have been killed.

Ctenocephalides felis = Ctenocephalides felis test (CTECFE), blood feeding; details: Ctenocephalides felis, in Bos taurus, 48 h, read-out: activity (mortality in %)
Method: BIOLOGICAL TEST EXAMPLE 7
Ctenocephalides felis—Test (CTECFE)
as §1
To produce a suitable preparation of active compound, 10 mg of active compound are dissolved in 0.5 ml solvent, and the concentrate is diluted with cattle blood to the desired concentration. Approximately 20 adult unfed (Ctenocephalides felis) are placed in flea chambers. The blood chamber, sealed with parafilm on the bottom, are filled with cattle blood supplied with compound solution and placed on top of the flea chamber, so that the fleas are able to suck the blood. The blood chamber is heated to 37° C. whereas the flea chamber is kept at room temperature.
After 2 days mortality in % is determined. 100% means that all the fleas have been killed; 0% means that none of the fleas have been killed.

SMILES	insecticidal activity (Spodoptera litura [1]) [%]	activity (mortality in %) (Musca domestica) [%]	insecticidal activity (Tetranychus urticae; 20 ppm) [%]	insecticidal activity (Aulacophora femoralis; 20 ppm) [%]	insecticidal activity (Spodoptera litura [2]; 20 ppm) [%]	mortality at 100 ppm (Musca domestica; Musca domestica, 48 h, read-out: activity (mortality in %)) [%]	mortality at 100 ppm (Lucilia cuprina) [%]	insecticidal activity (Tetranychus urticae; 4 ppm) [%]	insecticidal activity (Aulacophora femoralis; 4 ppm) [%]	mortality at 100 ppm (Boophilus microplus; Rhipicephalus microplus, 168 h, read-out: activity (mortality in %)) [%]	mortality at 100 ppm (Ctenocephalides felis) [%]	insecticidal activity (Spodoptera litura [2]; 0.8 ppm) [%]	insecticidal activity (Aulacophora femoralis; 100 ppm) [%]	activity (mortality in %) (Boophilus microplus; 100 ppm, adult engorged females immersed one minute, after 7 days) [%]
CC(NC(=O)C1CC1)c1ccc(N2CCC(c3cc(Cl)cc(Cl)c3)(C(F)(F)F)C2)cc1 (racemic) [Compound 3]	100	90	100	100	100									
CC(NC(=O)C1CC1)c1ccc(N2CCC(c3cc(Cl)c(Cl)c(Cl)c3)(C(F)(F)F)C2)cc1 (racemic) [Compound 8]	100	90	100	100	100									
CCC(=O)NC(C)c1ccc(N2CCC(c3cc(C(F)(F)F)cc(C(F)(F)F)c3)(C(F)(F)F)C2)cc1 (racemic) [Compound 10]	100	90	100	100	100									
CC(=O)N[C@@H](C)c1ccc(N2CCC(c3cc(C(F)(F)F)cc(C(F)(F)F)c3)(C(F)(F)F)C2)cc1 (stereo partly drawn) [Compound 9-b]	100	90		100	100									
C[C@H](NC(=O)C1CC1)c1ccc(N2CCC(c3cc(C(F)(F)F)cc(C(F)(F)F)c3)(C(F)(F)F)C2)cc1 (stereo partly drawn) [Compound 11-b, N-[(1S)-1-(4-{3-[3,5-bis(trifluoromethyl)phenyl]-3-(trifluoromethyl)pyrrolidin-1-yl}phenyl)ethyl]cyclopropanecarboxamide]			100	100	100	100	100	100	100	100	100	100		
COCCC(=O)N[C@@H](C)c1ccc(N2CCC(c3cc(C(F)(F)F)cc(C(F)(F)F)c3)(C(F)(F)F)C2)cc1 (stereo partly drawn) [Compound 15-b]	100		100										100	80

From patent US8536201B2, “Pesticidal arylpyrrolidines” (Bayer Intellectual Property GmbH, priority 2009, dated 2013)
